From BindingDB's records for doi:10.1021/acs.jnatprod.9b00663 (University of Utah, 2019) come the findings set out here.

The experiment addresses Low molecular weight phosphotyrosine protein phosphatase (Homo sapiens) (UniProt P24666). The experiment can be described thus: Inhibition of LMWPTP (unknown origin) using DiFMUP as substrate incubated for 30 mins followed by substrate addition at pH 6.5 by standard phosphatase assay based fluorescence analysis.

Sequence of Low molecular weight phosphotyrosine protein phosphatase (Homo sapiens) (P24666 whole entry, looked up): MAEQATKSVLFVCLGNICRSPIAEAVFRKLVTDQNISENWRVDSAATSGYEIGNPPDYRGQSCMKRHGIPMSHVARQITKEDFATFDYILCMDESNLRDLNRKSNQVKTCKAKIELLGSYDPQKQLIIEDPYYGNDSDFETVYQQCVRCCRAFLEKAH

The IC50 is the concentration needed to halve the response being measured. Low values mean inhibition by little substance, high ones a need for much substance. `CC1(C)Cc2c(O)c(C=O)c3c(c2C1)C(=O)OC(O)C3` (configuration not stated) [Illudalic acid] registered an IC50 of over 100 µM.
With `COc1c(C=O)c2c(c3c1CC(C)(C)C3)C(=O)OC(O)C2` (configuration not stated) [3-Hydroxy-6-methoxy-8,8-dimethyl-1-oxo-1,3,4,7,8,9-hexahydro-cyclopenta[h]isochromene-5-carbaldehyde] the figure was over 100 µM.
